Test results taken from article PMC10768243 (Microbial Cell Factories, 2024).

Target: topoisomerase II
Assay: topoisomerase II activity inhibition assay (isoform not given)
Format: biochemical

In the case of CC[C@@]1(O)C(=O)OCc2c1cc1n(c2=O)Cc2cc3ccccc3nc2-1 [camptothecin], the IC50 is reported as 0.52 nM.
